Results on eleven compounds are retold here after patent US4363805A, “Aminodesoxy-1.4;3.6-dianhydrohexitol nitrates and pharmaceutical composition” (Firma Willmar Schwabe, priority 1980, dated 1982).

For one series, the system named is narcotised guinea pigs. The series can be described thus: Blood pressure experiments on guinea pigs, i.v. It counts as in vivo, guinea pig. As to conditions: for blood pressure before: before administration.
The subject of series [1] is isolated guinea pig hearts. The series can be described thus: Experiments on Langendorff hearts (coronary flowthrough, inotropism, frequency). The following applies: Cavia porcellus, read-out: flowthrough, percentage change with regard to the initial value.
Procedure: After reaching the stationary state in the 30th minute, the hearts were each perfused with 50 ml. tyrode solution with a content of test substance of, in each case, 25 μg./ml. Each test substance was tested on 3-6 hearts.
In each case, there was measured the inotropism, the flowthrough and the frequency, whereby the values given in Table I are average values of the percentage changes in comparison with the initial values.
Series [2] is described as follows: Acute toxicity, intravenous, mice. It counts as in vivo. As to conditions: mouse, in vivo; intravenous, within 24 hours; read-out: Evaluated LD50-range.
Another series concerns female NMRI-albino mice. Briefly: Acute toxicity, intravenous, mice. It counts as in vivo. As to conditions: within 24 hours.
For another series, the system named is mongrel cats. The series can be described thus: Inotropic and heart-circulatory effectiveness on narcotised cats, intravenous. It counts as in vivo, cat. As to conditions: 6 animals; for blood pressure before / dp/dt (inotropism) before / heart frequency before: before administration.

Molecules are shown by their SMILES.

Broadly, the LD50 is the dose at which mortality reaches 50%.

Turning to `O=[N+]([O-])O[C@H]1CO[C@H]2[C@@H]1OC[C@@H]2N1CCCC1` [14 b], in the series on narcotised guinea pigs (0.25 mg/kg i.v.), the blood pressure after amounted to 65.75 ± 0.75 mm.Hg, the “blood pressure Δ” value is on record as -5.50 mm.Hg and the blood pressure before is 71.25 ± 0.63 mm.Hg. In addition, in the series with narcotised guinea pigs (1.00 mg/kg i.v.), the blood pressure after was 56.25 ± 2.17 mm.Hg and the “blood pressure Δ” value is given as -14.00 mm.Hg. For the same compound, in the series with narcotised guinea pigs (2.50 mg/kg i.v.), the blood pressure after is given as 49.25 ± 3.94 mm.Hg and the “blood pressure Δ” value is -18.50 mm.Hg. Besides, the activation at 25 µg/mL in series [1] came to 25.4%. The 50% lethal dose (LD50) at 24 h in series [2] was at least 200 mg/kg. For the same compound, the Frequency of death in the series on female NMRI-albino mice (200 mg/kg i.v.) is 1/3.

Take `CN1CCN([C@H]2CO[C@H]3[C@@H]2OC[C@@H]3O[N+](=O)[O-])CC1` [17 b]: in the series on narcotised guinea pigs (0.25 mg/kg i.v.), the blood pressure after was determined as 59.00 ± 2.27 mm.Hg, the “blood pressure Δ” value is -4.50 mm.Hg and the blood pressure before is on record as 63.50 ± 3.77 mm.Hg. In the series on narcotised guinea pigs (1.00 mg/kg i.v.), the blood pressure after was determined as 46.25 ± 3.07 mm.Hg and the “blood pressure Δ” value is -17.75 mm.Hg. In the series with narcotised guinea pigs (2.50 mg/kg i.v.), the blood pressure after was determined as 38.25 ± 4.55 mm.Hg and the “blood pressure Δ” value is -23.50 mm.Hg. Moreover, in series [1], the activation at 25 µg/mL was determined as 25.1%. For the same compound, in series [2], the LD50 at 24 h was over 200 mg/kg. For the same compound, the Frequency of death in the series on female NMRI-albino mice (200 mg/kg i.v.) was 0/3.

`Cc1cccc(OCC(O)CN[C@H]2CO[C@H]3[C@@H]2OC[C@@H]3O[N+](=O)[O-])c1` (stereo partly drawn) [Example 51, 5-[2-Hydroxy-3-(3-tolyloxy)-propylamino]-5-desoxy-1.4;3.6-dianhydro-L-iditol 2-nitrate]: the blood pressure after with narcotised guinea pigs (0.25 mg/kg i.v.) turned out to be 63.00 ± 2.35 mm.Hg; with narcotised guinea pigs (1.00 mg/kg i.v.) it was 55.75 ± 2.36 mm.Hg; in the series on narcotised guinea pigs (2.50 mg/kg i.v.), 42.25 ± 1.32 mm.Hg. For the same compound, the “blood pressure Δ” value with narcotised guinea pigs (0.25 mg/kg i.v.) is given as -3.75 mm.Hg; with narcotised guinea pigs (1.00 mg/kg i.v.), -10.25 mm.Hg; with narcotised guinea pigs (2.50 mg/kg i.v.), -23.50 mm.Hg. The blood pressure before in the series on narcotised guinea pigs (0.25 mg/kg i.v.) came to 66.75 ± 2.49 mm.Hg. In series [1], the activation at 25 µg/mL came to 92.4%. Also, in series [2], the median lethal dose (LD50) at 24 h lay within 50 to 100 mg/kg. In addition, the Frequency of death with female NMRI-albino mice (50 mg/kg i.v.) was 0/3; with female NMRI-albino mice (100 mg/kg i.v.), 3/3; with female NMRI-albino mice (200 mg/kg i.v.) it was 6/6.

Regarding `CN(CCCc1ccccc1)[C@H]1CO[C@H]2[C@@H]1OC[C@@H]2O[N+](=O)[O-]` [Example 21, 5-[N-Methyl-N-(3-phenylpropyl)-amino]-5-desoxy-1.4;3.6-dianhydro-L-iditol 2-nitrate], in series [1], the activation at 25 µg/mL came to 117%. The LD50 at 24 h in series [2] fell in the range of 50 to 100 mg/kg. Also, the Frequency of death with female NMRI-albino mice (50 mg/kg i.v.) is on record as 0/3; in the series on female NMRI-albino mice (100 mg/kg i.v.), 3/3; with female NMRI-albino mice (200 mg/kg i.v.), 6/6.

Consider `CN(Cc1ccccc1)[C@H]1CO[C@H]2[C@@H]1OC[C@@H]2O[N+](=O)[O-]` [Example 19, 5-(N-Benzyl-N-methylamino)-5-desoxy-1.4;3.6-dianhydro-L-iditol 2-nitrate], for which the activation at 25 µg/mL in series [1] is 100%. Moreover, in series [2], the LD50 at 24 h is 100 to 200 mg/kg. Moreover, the Frequency of death with female NMRI-albino mice (100 mg/kg i.v.) is 0/3; with female NMRI-albino mice (200 mg/kg i.v.) it was 6/6.

Take `O=[N+]([O-])O[C@H]1CO[C@H]2[C@@H]1OC[C@@H]2NCCOc1ccccc1` [Example 35, 5-(2-Phenoxyethylamino)-5-desoxy-1.4;3.6-dianhydro-L-iditol 2-nitrate]: the activation at 25 µg/mL in series [1] came to 34%. Further, the 50% lethal dose (LD50) at 24 h in series [2] was at least 100 mg/kg. Further, the Frequency of death in the series with female NMRI-albino mice (100 mg/kg i.v.) is 2/6; in the series on female NMRI-albino mice (200 mg/kg i.v.), 3/3.

For `O=[N+]([O-])O[C@H]1CO[C@H]2[C@@H]1OC[C@@H]2NCc1ccccc1` [Example 25, 5-Benzylamino-5-desoxy-1.4;3.6-dianhydro-L-iditol 2-nitrate], the activation at 25 µg/mL in series [1] is 47.8%. Moreover, the median lethal dose (LD50) at 24 h in series [2] is 100 to 200 mg/kg. Also, the results for the Frequency of death in the series with female NMRI-albino mice (100 mg/kg i.v.) and in the series on female NMRI-albino mice (200 mg/kg i.v.) were 0/3 and 6/6, respectively.

In the case of `CCN(CC)[C@H]1CO[C@H]2[C@@H]1OC[C@@H]2O[N+](=O)[O-]` [13 b], the activation at 25 µg/mL in series [1] was 9.05%. The LD50 at 24 h in series [2] was 100 to 200 mg/kg. Besides, the Frequency of death in the series on female NMRI-albino mice (100 mg/kg i.v.) is listed as 0/3; in the series on female NMRI-albino mice (200 mg/kg i.v.), 6/6.

As for `O=[N+]([O-])O[C@H]1CO[C@H]2[C@@H]1OC[C@@H]2NCCCc1ccccc1` [Example 28, 5-(3-Phenylpropylamino)-5-desoxy-1.4;3.6-dianhydro-L-iditol 2-nitrate], in the series on mongrel cats (0.25 mg/kg i.v.), the blood pressure before is 101.3 mm.Hg, the “dp/dt (inotropism) before” value is recorded as 7667 mm.Hg/sec, the heart frequency before is 225.0 min⁻¹ and the “blood pressure WD” value is 3.1 min. In the series with mongrel cats (0.25 mg/kg i.v.), the blood pressure after was 81.8 mm.Hg, the “blood pressure Δ” value is reported as -19.5 mm.Hg, the “dp/dt (inotropism) after” value stood at 7400 mm.Hg/sec and the “dp/dt (inotropism) Δ” value is recorded as -267 mm.Hg/sec. In the series on mongrel cats (0.25 mg/kg i.v.), the “dp/dt WD” value turned out to be 2.7 min, the heart frequency after was determined as 223.3 min⁻¹ and the “heart frequency Δ” value was -1.7 min⁻¹. In the series on mongrel cats (0.50 mg/kg i.v.), the “blood pressure WD” value is reported as 5.8 min, the blood pressure after was 79.0 mm.Hg, the “blood pressure Δ” value is listed as -25.9 mm.Hg and the “dp/dt (inotropism) after” value stood at 6567 mm.Hg/sec. Also, in the series on mongrel cats (0.50 mg/kg i.v.), the “dp/dt (inotropism) Δ” value is reported as -1000 mm.Hg/sec, the “dp/dt WD” value is given as 10.7 min, the heart frequency after is 226.3 min⁻¹ and the “heart frequency Δ” value is -1.7 min⁻¹. Moreover, in the series on mongrel cats (1.00 mg/kg i.v.), the “blood pressure WD” value is 12.2 min, the blood pressure after was 70.0 mm.Hg, the “blood pressure Δ” value is on record as -39.7 mm.Hg and the “dp/dt (inotropism) after” value came out at 5533 mm.Hg/sec. Besides, in the series on mongrel cats (1.00 mg/kg i.v.), the “dp/dt (inotropism) Δ” value is given as -1534 mm.Hg/sec, the “dp/dt WD” value came to 23.0 min, the heart frequency after was determined as 227.0 min⁻¹ and the “heart frequency Δ” value is -1.0 min⁻¹. Also, in the series on mongrel cats (2.50 mg/kg i.v.), the “blood pressure WD” value is recorded as over 10 min, the blood pressure after stood at 53.2 mm.Hg, the “blood pressure Δ” value is on record as -50.3 mm.Hg and the “dp/dt (inotropism) after” value stood at 3600 mm.Hg/sec. Moreover, in the series on mongrel cats (2.50 mg/kg i.v.), the “dp/dt (inotropism) Δ” value is given as -3067 mm.Hg/sec, the “dp/dt WD” value was over 10 min, the heart frequency after was found to be 206.3 min⁻¹ and the “heart frequency Δ” value was -22.0 min⁻¹. The activation at 25 µg/mL in series [1] is 68.1%. Also, in series [2], the LD50 at 24 h lay within 50 to 100 mg/kg. In the series on female NMRI-albino mice (50 mg/kg i.v.), the Frequency of death is 0/10. In addition, the Frequency of death in the series on female NMRI-albino mice (100 mg/kg i.v.) is listed as 5/6. In addition, the Frequency of death with female NMRI-albino mice (200 mg/kg i.v.) is 3/3.

Consider `CN(C)[C@H]1CO[C@H]2[C@@H]1OC[C@@H]2O[N+](=O)[O-]` [12 b], for which the activation at 25 µg/mL in series [1] turned out to be 16.2%. Moreover, in series [2], the LD50 at 24 h was over 200 mg/kg. In the series with female NMRI-albino mice (200 mg/kg i.v.), the Frequency of death is listed as 0/3.

With `O=[N+]([O-])O[C@H]1CO[C@H]2[C@@H]1OC[C@@H]2NCC(O)COc1cccc2ccccc12` (stereo partly drawn) [Example 54, 5-[2-Hydroxy-3-(1-naphthyloxy)-propylamino]-5-desoxy-1.4;3.6-dianhydro-L-iditol 2-nitrate], in the series on narcotised guinea pigs (0.25 mg/kg i.v.), the blood pressure after stood at 62.25 ± 8.05 mm.Hg, the “blood pressure Δ” value was -4.75 mm.Hg and the blood pressure before was found to be 67.00 ± 4.51 mm.Hg. In the series with narcotised guinea pigs (1.00 mg/kg i.v.), the blood pressure after is 56.50 ± 4.97 mm.Hg and the “blood pressure Δ” value is given as -10.75 mm.Hg. Besides, in the series with narcotised guinea pigs (2.50 mg/kg i.v.), the blood pressure after worked out at 44.75 ± 4.50 mm.Hg and the “blood pressure Δ” value is -23.75 mm.Hg. Moreover, in the series with mongrel cats (0.25 mg/kg i.v.), the blood pressure before turned out to be 115.2 mm.Hg, the “dp/dt (inotropism) before” value came to 8783 mm.Hg/sec, the heart frequency before is 188.7 min⁻¹ and the “blood pressure WD” value is 1.9 min. In the series with mongrel cats (0.25 mg/kg i.v.), the blood pressure after is 103.8 mm.Hg, the “blood pressure Δ” value is listed as -11.4 mm.Hg, the “dp/dt (inotropism) after” value amounted to 8150 mm.Hg/sec and the “dp/dt (inotropism) Δ” value was -633 mm.Hg/sec. Moreover, in the series with mongrel cats (0.25 mg/kg i.v.), the “dp/dt WD” value is 3.9 min, the heart frequency after was found to be 187.7 min⁻¹ and the “heart frequency Δ” value is -1.0 min⁻¹. For the same compound, in the series with mongrel cats (0.50 mg/kg i.v.), the “blood pressure WD” value was found to be 3.2 min, the blood pressure after stood at 101.8 mm.Hg, the “blood pressure Δ” value was -15.9 mm.Hg and the “dp/dt (inotropism) after” value is 6833 mm.Hg/sec. For the same compound, in the series on mongrel cats (0.50 mg/kg i.v.), the “dp/dt (inotropism) Δ” value was -1934 mm.Hg/sec, the “dp/dt WD” value was found to be 7.6 min, the heart frequency after stood at 186.7 min⁻¹ and the “heart frequency Δ” value was -0.7 min⁻¹. Besides, in the series on mongrel cats (1.00 mg/kg i.v.), the “blood pressure WD” value was 5.6 min, the blood pressure after was 91.0 mm.Hg, the “blood pressure Δ” value is on record as -27.8 mm.Hg and the “dp/dt (inotropism) after” value is reported as 5050 mm.Hg/sec. In the series with mongrel cats (1.00 mg/kg i.v.), the “dp/dt (inotropism) Δ” value is -3283 mm.Hg/sec, the “dp/dt WD” value is recorded as 15.2 min, the heart frequency after came to 172.0 min⁻¹ and the “heart frequency Δ” value was -12.0 min⁻¹. In the series with mongrel cats (2.50 mg/kg i.v.), the “blood pressure WD” value came to 6.4 min, the blood pressure after is 78.5 mm.Hg, the “blood pressure Δ” value is reported as -44.8 mm.Hg and the “dp/dt (inotropism) after” value is on record as 2817 mm.Hg/sec. In the series with mongrel cats (2.50 mg/kg i.v.), the “dp/dt (inotropism) Δ” value is reported as -5183 mm.Hg/sec, the “dp/dt WD” value is given as over 10 min, the heart frequency after was 158.3 min⁻¹ and the “heart frequency Δ” value is -20.0 min⁻¹. In addition, the activation at 25 µg/mL in series [1] stood at 274%.
